Assay results as given in US4029778A (priority 1969, dated 1977).
Like-named read-outs stand apart in the source and are kept apart here.

Columns and labels:
Walker 256 tumor [1] = test: animal or person; details: Walker 256, ip, read-out: ED50 (Effect)
Hepatoma 130 tumor [2] = details: in vivo, ip
[3] = system: Harding-Passey Melanoma tumor
Ehrlich ascites tumor [4] = details: in vivo, ip; for Lethality: 1000 mg/kg
Walker 256 tumor [5] = details: in vivo
Hepatoma 130 tumor [6] = test: animal or person; details: ip, read-out: ED50 (Effect)
Ehrlich ascites tumor [7] = test: animal or person; details: ip, read-out: ED50 (Effect)
tumors = test: antitumor activity (statement in words); format: in vivo
Procedure: (§1) The esters of the invention have shown effect in inhibiting the growth of several tumors, e.g., Ehrlich ascites, Hepatoma AH 130, lymphocytic leukemia (L1210), Walker 256 and Harding-Passey Melanoma according to the procedure of Cancer Chemotherapy National Service Center (Ref.: Cancer Chemotherapy Reports, December 1962).
The esters of this invention were tested for effectiveness in inhibiting the growth of Ehrlich ascites, Hepatoma 130, lymphocytic leukemia (L 1210), and Harding-Passey Melanoma, and Walker 256 tumors. The administration was by the intraperitoneal route in each case.

in vivo [8] = details: ip
in vivo [9] = details: ip; remark: listed apart in the source
[10] = Harding-Passey Melanoma growth inhibition and lethality, oral (Table 5); format: in vivo; details: in vivo, 11 × dose
Excerpt: as §1

Harding-Passey Melanoma = test: as above; format: in vivo; details: 11 × dose
Excerpt: as §1

[11] = Walker 256 tumor growth inhibition and lethality, oral (Table 5); format: in vivo; details: in vivo
Excerpt: as §1

Walker 256 = test: as above; format: in vivo
Excerpt: as §1

[12] = Hepatoma 130 tumor growth inhibition and lethality, oral (Table 5); format: in vivo; details: in vivo, 1 × dose
Excerpt: as §1

Hepatoma 130 = test: as above; format: in vivo; details: 1 × dose
Excerpt: as §1

[13] = system: Harding-Passey Melanoma tumor; test: animal or person; details: ip, read-out: ED50 (Effect)

C[C@]12C=CC(=O)C=C1CC[C@@H]1[C@@H]2[C@@H](O)C[C@@]2(C)[C@H]1CC[C@]2(O)C(=O)CO [Prednisolone, pregna-1,4-dien-11β,17α ,21-triol-3,20-dion, reference compound]
ED50 (Walker 256 tumor [1]): 214 mg/kg | T.I. (Hepatoma 130 tumor [2]): 6.6 | T.I. ([3]; in vivo, ip): < 2.5 | Effect ([3]; in vivo, ip, 243 mg/kg): no effect | T.I. (Ehrlich ascites tumor [4]): > 8.3 | Lethality (Ehrlich ascites tumor [4]): no toxicity | T.I. (Walker 256 tumor [5]; ip): 3.0 | ED50 (Hepatoma 130 tumor [6]): 118 mg/kg | ED50 (Ehrlich ascites tumor [7]): 120 mg/kg

Cc1ccc(C(=O)OCC(=O)[C@@]2(O)CC[C@H]3[C@@H]4CCC5=CC(=O)CC[C@]5(C)[C@H]4[C@@H](O)C[C@@]32C)cc1N(CCCl)CCCl [hydrocortisone-21-3'-[N-bis-(β-chloroethyl)-amino]-4'-methylbenzoate]
antitumor activity (tumors): desired antitumor activity

CC(=O)NC(Cc1ccc(N(CCCl)CCCl)cc1)C(=O)OCC(=O)[C@@]1(O)CC[C@H]2[C@@H]3CCC4=CC(=O)CC[C@]4(C)[C@H]3[C@@H](O)C[C@@]21C (stereo partly drawn) [hydrocortisone-21-3'-{p-[N-bis-(β-chloroethyl)-amino]-phenyl}-2'-acetamido-propionate]
antitumor activity against Walker 256 tumors (Walker 256 tumor [5]): same activity

C[C@]12C=CC(=O)C=C1CC[C@@H]1[C@@H]2C(=O)C[C@@]2(C)[C@H]1CC[C@]2(O)C(=O)COC(=O)c1ccc(N(CCCl)CCCl)cc1 [prednisone-21-p-/N-bis(β-chloroethyl)-amino/-benzoate]
ED50 (Effect) (Hepatoma 130 tumor [2]): 58 mg/kg | Lethality (Hepatoma 130 tumor [2]; 1000 mg/kg): no toxicity | ED50 (Effect) ([3]; intraperitoneal, 11 × dose): 18 mg/kg | ED50 (Effect) (Ehrlich ascites tumor [4]): 12 mg/kg | Lethality (Ehrlich ascites tumor [4]): no toxicity | LD50 (in vivo [8]): 97 mg/kg

C[C@]12CCC(=O)C=C1CC[C@@H]1[C@@H]2[C@@H](O)C[C@@]2(C)[C@H]1CC[C@]2(O)C(=O)COC(=O)CCCc1ccc(N(CCCl)CCCl)cc1 [hydrocortisone-21-4'-{p-[N-bis-(β-chloroethyl)-amino]-phenyl}-butyrate]
antitumor activity (tumors): desired antitumor activity

C[C@]12C=CC(=O)C=C1CC[C@@H]1[C@@H]2[C@@H](O)C[C@@]2(C)[C@H]1CC[C@]2(O)C(=O)COC(=O)Cc1ccc(N(CCCl)CCCl)cc1 [prednisolone-21-p-/N-bis(β-chloroethyl)-amino/-phenylacetate]
LD50 (in vivo [9]): 560 mg/kg | ED50 (Effect) (Hepatoma 130 tumor [2]): 27 mg/kg

O=C(O)CCCc1ccc(N(CCCl)CCCl)cc1 [Chlorambucil, reference compound]
LD50 (in vivo [9]): 30 mg/kg | ED50 (Effect) (Hepatoma 130 tumor [2]): 4.3 mg/kg | LD50 [10]: 7 mg/kg | ED50 (Effect) (Harding-Passey Melanoma): 2.3 mg/kg | LD50 [11]: 13.5 mg/kg | ED50 (Effect) (Walker 256): 0.42 mg/kg | LD50 [12]: 55 mg/kg | ED50 (Effect) (Hepatoma 130): > 31 mg/kg

C[C@]12C=CC(=O)C=C1CC[C@@H]1[C@@H]2[C@@H](O)C[C@@]2(C)[C@H]1CC[C@]2(O)C(=O)COC(=O)CCCc1ccc(N(CCCl)CCCl)cc1 [prednisolone-21-4'-[p-/N-bis(β-chloroethyl)-amino/-phenyl]-butyrate]
ED50 [13]: 3.1 mg/kg | ED50 (Walker 256 tumor [1]): 1.1 mg/kg | T.I. (Hepatoma 130 tumor [2]): 45 | LD50 [10]: 40 mg/kg | T.I. (Harding-Passey Melanoma): 6.7 | ED50 (Harding-Passey Melanoma; read-out: ED50 (Effect)): 6 mg/kg | T.I. ([3]; intraperitoneal, 11 × dose): 2.2 | LD50 [11]: 64 mg/kg | T.I. (Walker 256): 64 | ED50 (Walker 256; Walker 256, read-out: ED50 (Effect)): 1 mg/kg | T.I. (Walker 256 tumor [5]; ip): 29 | LD50 [12]: 380 mg/kg | T.I. (Hepatoma 130): 2.5 | ED50 (Hepatoma 130; read-out: ED50 (Effect)): 155 mg/kg | ED50 (Hepatoma 130 tumor [6]): 5.8 mg/kg

C[C@]12C=CC(=O)C=C1CC[C@@H]1[C@@H]2[C@@H](O)C[C@@]2(C)[C@H]1CC[C@]2(O)C(=O)COC(=O)C(N)Cc1ccc(N(CCCl)CCCl)cc1 (stereo partly drawn) [prednisolone-21-3'-{p-[N-bis-(β-chloroethyl)-amino]-phenyl}-2'-aminopropionate]
antitumor activity (tumors): desired antitumor activity

C[C@]12CCC(=O)C=C1CC[C@@H]1[C@@H]2[C@@H](O)C[C@@]2(C)[C@H]1CC[C@]2(O)C(=O)COC(=O)c1ccc(N(CCCl)CCCl)cc1 [hydrocortisone-21-p-/N-bis(β -chloroethyl)-amino/-benzoate]
ED50 (Effect) (Hepatoma 130 tumor [2]): 28 mg/kg | ED50 (Effect) ([3]; intraperitoneal, 11 × dose): 19 mg/kg | ED50 (Effect) (Ehrlich ascites tumor [4]): 15 mg/kg

C[C@]12C=CC(=O)C=C1CC[C@@H]1[C@@H]2[C@@H](O)C[C@@]2(C)[C@H]1CC[C@]2(O)C(=O)COC(=O)c1ccc(N(CCCl)CCCl)cc1 [prednisolone-21-p-/N-bis(β-chloroethyl)-amino/-benzoate]
antitumor activity (tumors): desired antitumor activity | ED50 (Effect) (Hepatoma 130 tumor [2]): 5.6 mg/kg | ED50 (Effect) ([3]; intraperitoneal, 11 × dose): 3.4 mg/kg | ED50 (Effect) (Ehrlich ascites tumor [4]): 13 mg/kg | Lethality (Ehrlich ascites tumor [4]): no toxicity | ED50 (Effect) (Walker 256 tumor [5]; ip): 9.6 mg/kg

Cc1ccc(C(=O)OCC(=O)[C@@]2(O)CC[C@H]3[C@@H]4CCC5=CC(=O)C=C[C@]5(C)[C@H]4[C@@H](O)C[C@@]32C)cc1N(CCCl)CCCl [prednisolone-21-3'-[N-bis-(β-chloroethyl)-amino]-4'-methyl-benzoate]
antitumor activity (tumors): having the desired antitumor activity

C[C@]12CCC(=O)C=C1CC[C@@H]1[C@@H]2[C@@H](O)C[C@@]2(C)[C@H]1CC[C@]2(O)C(=O)COC(=O)C(N)Cc1ccc(N(CCCl)CCCl)cc1 (stereo partly drawn) [hydrocortisone-21-3'-{p-[N-bis-(β-chloroethyl)-amino]-phenyl}-2'-aminopropionate]
antitumor activity (tumors): desired antitumor activity

CC(=O)NC(Cc1ccc(N(CCCl)CCCl)cc1)C(=O)OCC(=O)[C@@]1(O)CC[C@H]2[C@@H]3CCC4=CC(=O)C=C[C@]4(C)[C@H]3[C@@H](O)C[C@@]21C (stereo partly drawn) [prednisolone-21-3'-{p-[N-bis-(β-chloroethyl)-amino]-phenyl}-2'-acetamido-propionate]
antitumor activity against Walker 256 tumors (Walker 256 tumor [5]): active antitumor agent
